Test results reported in publication PMC7801616, “Surface hydrophobics mediate functional dimerization of CYP121A1 of Mycobacterium tuberculosis” (Scientific Reports, 2021).
Entries after “also recorded” stand apart in the source; their conditions may differ.

Tests used:
WT CYP121A1 dimer = test system: WT CYP121A1 dimer; set-up: species or system Mycobacterium tuberculosis
I166A_I180A CYP121A1 = type: binding, Mycobacterium tuberculosis
[1] = test system: I166A_I180A CYP121A1 heme thiolate-CO complex
WT CYP121A1 (dimeric) = WT CYP121A1 (dimeric) (Mycobacterium tuberculosis, UniProt P9WPP7); type: binding; settings: pH 7.4
[2] = biological target: I166A_I180A CYP121A1 (monomeric) (Mycobacterium tuberculosis, UniProt P9WPP7, I166A/I180A); type: binding

Clc1ccc(COC(Cn2ccnc2)c2ccc(Cl)cc2Cl)cc1 (stereo not drawn) [econazole]
effect of ligand saturation on dimer migration on gel filtration column (WT CYP121A1 dimer): did not cause CYP121A1 to migrate on the column as a monomer

CC(=O)N1CCN(c2ccc(OCC3COC(Cn4ccnc4)(c4ccc(Cl)cc4Cl)O3)cc2)CC1 (stereo not drawn) [ketoconazole]
effect of ligand on thermal stability (I166A_I180A CYP121A1): modest increase in the stability; also recorded: destabilizing
stabilization of the CO-bound 450 nm species [1]: minimal stabilization of the 450 nm species

Clc1ccc(COC(Cn2ccnc2)c2ccc(Cl)cc2Cl)c(Cl)c1 (stereo not drawn) [miconazole]
effect of ligand saturation on dimer migration on gel filtration column (WT CYP121A1 dimer): did not cause CYP121A1 to migrate on the column as a monomer

c1c[nH]cn1 [imidazole]
Kd (WT CYP121A1 (dimeric)): 46 mM
decrease of Kd from dimeric to monomeric CYP121A1 [2]: 20 fold
Kd ([2]; pH 7.4): 2.73 mM
effect of ligand on thermal stability (I166A_I180A CYP121A1): destabilizing

O=C1N[C@@H](Cc2ccc(O)cc2)C(=O)N[C@H]1Cc1ccc(O)cc1 [cYY, cyclo-L-Tyr-L-Tyr]
increase of estimated half-life of the heme thiolate-CO complex by presence of substrate [1]: 50 fold
